Legend:
Format in all cases: in vivo
[1] = test system: ivy-leaved morning glory (Ipomoea hederacea); assay: Test G Pre-Emergence Protocol; conditions: Ipomoea, pre-emergence, 312 h, evaluated after 13 days; for pest or weed control at 15.625 g/ha: 15.625 g ai/ha; for pest or weed control at 15.625 g/ha / pest or weed control at 250 g/ha: read-out: Morningglory, Ivy-leaved damage rating (100=total damage to plant; 0=no damage to plant); for pest or weed control at 62.5 g/ha: 62.5 g ai/ha, 100=total damage to plant, 0=no damage to plant, read-out: Morningglory, Ivy-leaved damage rating; for pest or weed control at 250 g/ha: 250 g ai/ha
How it was run: (§1)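 Visual injury (0–100) at day 13 after a single pre-emergence spray. Rates: 15.625, 62.5, 250 g/ha in acetone–water 50:50 with 0.5% Tween 20. Growth conditions: 24/16° C, 14 h light, 65% humidity.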

[2] = test system: giant foxtail (Setaria faberi); assay: Test G Pre-Emergence Protocol; conditions: Setaria faberi, pre-emergence, 312 h, evaluated after 13 days; for pest or weed control at 15.625 g/ha: 15.625 g ai/ha; for pest or weed control at 15.625 g/ha / pest or weed control at 250 g/ha: read-out: Foxtail, Giant damage rating (100=total damage to plant; 0=no damage to plant); for pest or weed control at 62.5 g/ha: 62.5 g ai/ha, 100=total damage to plant, 0=no damage to plant, read-out: Foxtail, Giant damage rating; for pest or weed control at 250 g/ha: 250 g ai/ha
How it was run: as §1

[3] = test system: velvetleaf (Abutilon theophrasti); assay: Test G Pre-Emergence Protocol; conditions: Abutilon theophrasti, pre-emergence, 312 h, evaluated after 13 days; for pest or weed control at 15.625 g/ha: 15.625 g ai/ha; for pest or weed control at 15.625 g/ha / pest or weed control at 250 g/ha: read-out: Velvetleaf damage rating (100=total damage to plant; 0=no damage to plant); for pest or weed control at 62.5 g/ha: 62.5 g ai/ha, 100=total damage to plant, 0=no damage to plant, read-out: Velvetleaf damage rating; for pest or weed control at 250 g/ha: 250 g ai/ha
How it was run: as §1

[4] = test system: redroot pigweed (Amaranthus retroflexus); assay: Test G Pre-Emergence Protocol; conditions: Amaranthus retroflexus, pre-emergence, 312 h, evaluated after 13 days; for pest or weed control at 15.625 g/ha: 15.625 g ai/ha; for pest or weed control at 15.625 g/ha / pest or weed control at 250 g/ha: read-out: Pigweed, Redroot damage rating (100=total damage to plant; 0=no damage to plant); for pest or weed control at 62.5 g/ha: 62.5 g ai/ha, 100=total damage to plant, 0=no damage to plant, read-out: Pigweed, Redroot damage rating; for pest or weed control at 250 g/ha: 250 g ai/ha
How it was run: as §1

corn (Zea mays) [5] = assay: Test G Pre-Emergence Protocol; conditions: Zea mays, pre-emergence, 312 h, evaluated after 13 days; for plant injury at 15.625 g/ha: 15.625 g ai/ha; for plant injury at 15.625 g/ha / plant injury at 250 g/ha: read-out: Corn damage rating (100=total damage to plant; 0=no damage to plant); for plant injury at 62.5 g/ha: 62.5 g ai/ha, 100=total damage to plant, 0=no damage to plant, read-out: Corn damage rating; for plant injury at 250 g/ha: 250 g ai/ha
How it was run: as §1

[6] = test system: barnyardgrass (Echinochloa crus-galli); assay: Test G Pre-Emergence Protocol; conditions: Echinochloa crus-galli, pre-emergence, 312 h, evaluated after 13 days; for pest or weed control at 15.625 g/ha: 15.625 g ai/ha; for pest or weed control at 15.625 g/ha / pest or weed control at 250 g/ha: read-out: Barnyardgrass damage rating (100=total damage to plant; 0=no damage to plant); for pest or weed control at 62.5 g/ha: 62.5 g ai/ha, 100=total damage to plant, 0=no damage to plant, read-out: Barnyardgrass damage rating; for pest or weed control at 250 g/ha: 250 g ai/ha
How it was run: as §1

[7] = test system: ivy-leaved morning glory (Ipomoea hederacea); assay: Test G Post-Emergence Protocol; conditions: Ipomoea, post-emergence, 312 h, read-out: Morningglory, Ivy-leaved damage rating; for pest or weed control at 15.625 g/ha: 15.625 g ai/ha, evaluated after 13 days (100=total damage to plant; 0=no damage to plant); for pest or weed control at 62.5 g/ha: 62.5 g ai/ha; for pest or weed control at 62.5 g/ha / pest or weed control at 250 g/ha: evaluated after 13 days, 100=total damage to plant, 0=no damage to plant; for pest or weed control at 250 g/ha: 250 g ai/ha
How it was run: (§2)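 Sow in soil; grow 8 d (24/16 °C, 14 h light, 65% humidity); spray 15.625/62.5/250 g/ha in acetone:water 50:50 + 0.5% Tween 20; grow on, water twice daily; score damage 0–100 at 13 d.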

[8] = test system: giant foxtail (Setaria faberi); assay: Test G Post-Emergence Protocol; conditions: Setaria faberi, post-emergence, 312 h, read-out: Foxtail, Giant damage rating; for pest or weed control at 15.625 g/ha: 15.625 g ai/ha, evaluated after 13 days (100=total damage to plant; 0=no damage to plant); for pest or weed control at 62.5 g/ha: 62.5 g ai/ha; for pest or weed control at 62.5 g/ha / pest or weed control at 250 g/ha: evaluated after 13 days, 100=total damage to plant, 0=no damage to plant; for pest or weed control at 250 g/ha: 250 g ai/ha
How it was run: as §2

[9] = test system: velvetleaf (Abutilon theophrasti); assay: Test G Post-Emergence Protocol; conditions: Abutilon theophrasti, post-emergence, 312 h, read-out: Velvetleaf damage rating; for pest or weed control at 15.625 g/ha: 15.625 g ai/ha, evaluated after 13 days (100=total damage to plant; 0=no damage to plant); for pest or weed control at 62.5 g/ha: 62.5 g ai/ha; for pest or weed control at 62.5 g/ha / pest or weed control at 250 g/ha: evaluated after 13 days, 100=total damage to plant, 0=no damage to plant; for pest or weed control at 250 g/ha: 250 g ai/ha
How it was run: as §2

[10] = test system: redroot pigweed (Amaranthus retroflexus); assay: Test G Post-Emergence Protocol; conditions: Amaranthus retroflexus, post-emergence, 312 h, read-out: Pigweed, Redroot damage rating; for pest or weed control at 15.625 g/ha: 15.625 g ai/ha, evaluated after 13 days (100=total damage to plant; 0=no damage to plant); for pest or weed control at 62.5 g/ha: 62.5 g ai/ha; for pest or weed control at 62.5 g/ha / pest or weed control at 250 g/ha: evaluated after 13 days, 100=total damage to plant, 0=no damage to plant; for pest or weed control at 250 g/ha: 250 g ai/ha
How it was run: as §2

corn (Zea mays) [11] = assay: Test G Post-Emergence Protocol; conditions: Zea mays, post-emergence, 312 h, read-out: Corn damage rating; for plant injury at 15.625 g/ha: 15.625 g ai/ha, evaluated after 13 days (100=total damage to plant; 0=no damage to plant); for plant injury at 62.5 g/ha: 62.5 g ai/ha; for plant injury at 62.5 g/ha / plant injury at 250 g/ha: evaluated after 13 days, 100=total damage to plant, 0=no damage to plant; for plant injury at 250 g/ha: 250 g ai/ha
How it was run: as §2

[12] = test system: barnyardgrass (Echinochloa crus-galli); assay: Test G Post-Emergence Protocol; conditions: Echinochloa crus-galli, post-emergence, 312 h, read-out: Barnyardgrass damage rating; for pest or weed control at 15.625 g/ha: 15.625 g ai/ha, evaluated after 13 days (100=total damage to plant; 0=no damage to plant); for pest or weed control at 62.5 g/ha: 62.5 g ai/ha; for pest or weed control at 62.5 g/ha / pest or weed control at 250 g/ha: evaluated after 13 days, 100=total damage to plant, 0=no damage to plant; for pest or weed control at 250 g/ha: 250 g ai/ha
How it was run: as §2

SMILES | pest or weed control at 15.625 g/ha [1] [%] | pest or weed control at 62.5 g/ha [1] [%] | pest or weed control at 250 g/ha [1] [%] | pest or weed control at 15.625 g/ha [2] [%] | pest or weed control at 62.5 g/ha [2] [%] | pest or weed control at 250 g/ha [2] [%] | pest or weed control at 15.625 g/ha [3] [%] | pest or weed control at 62.5 g/ha [3] [%] | pest or weed control at 250 g/ha [3] [%] | pest or weed control at 15.625 g/ha [4] [%] | pest or weed control at 62.5 g/ha [4] [%] | pest or weed control at 250 g/ha [4] [%] | plant injury at 15.625 g/ha (corn (Zea mays) [5]) [%] | plant injury at 62.5 g/ha (corn (Zea mays) [5]) [%] | plant injury at 250 g/ha (corn (Zea mays) [5]) [%] | pest or weed control at 15.625 g/ha [6] [%] | pest or weed control at 62.5 g/ha [6] [%] | pest or weed control at 250 g/ha [6] [%] | pest or weed control at 15.625 g/ha [7] [%] | pest or weed control at 62.5 g/ha [7] [%] | also measured
CN1C[C@H](c2ccnc(C(C)(C)C)n2)[C@@H](C(=O)Nc2ccc(F)c(F)c2F)C1=O (racemic) [Compound 1770] | 0 | 0 | 30 | 0 | 50 | 80 | 0 | 0 | 20 | 0 | 0 | 10 | 0 | 0 | 0 | 0 | 20 | 70 | 0 | 10 | pest or weed control at 250 g/ha [7]: 20%; pest or weed control at 15.625 g/ha [8]: 0%; pest or weed control at 62.5 g/ha [8]: 20%; pest or weed control at 250 g/ha [8]: 70%; pest or weed control at 15.625 g/ha [9]: 0%; pest or weed control at 62.5 g/ha [9]: 10%; pest or weed control at 250 g/ha [9]: 30%; pest or weed control at 15.625 g/ha [10]: 0%; pest or weed control at 62.5 g/ha [10]: 20%; pest or weed control at 250 g/ha [10]: 40%; plant injury at 15.625 g/ha (corn (Zea mays) [11]): 0%; plant injury at 62.5 g/ha (corn (Zea mays) [11]): 0%; plant injury at 250 g/ha (corn (Zea mays) [11]): 0%; pest or weed control at 15.625 g/ha [12]: 0%; pest or weed control at 62.5 g/ha [12]: 0%; pest or weed control at 250 g/ha [12]: 70%
CN1C[C@H](c2ccc(Cl)cc2)[C@@H](C(=O)Nc2cnccc2C(F)(F)F)C1=O [Compound 1812] | 0 | 0 | 40 | 90 | 90 | 90 | 0 | 40 | 80 | 0 | 20 | 70 | 0 | 0 | 40 | 0 | 0 | 70 | 0 | 50 | pest or weed control at 250 g/ha [7]: 70%; pest or weed control at 15.625 g/ha [8]: 0%; pest or weed control at 62.5 g/ha [8]: 80%; pest or weed control at 250 g/ha [8]: 80%; pest or weed control at 15.625 g/ha [9]: 0%; pest or weed control at 62.5 g/ha [9]: 10%; pest or weed control at 250 g/ha [9]: 60%; pest or weed control at 15.625 g/ha [10]: 0%; pest or weed control at 62.5 g/ha [10]: 20%; pest or weed control at 250 g/ha [10]: 50%; plant injury at 15.625 g/ha (corn (Zea mays) [11]): 0%; plant injury at 62.5 g/ha (corn (Zea mays) [11]): 0%; plant injury at 250 g/ha (corn (Zea mays) [11]): 50%; pest or weed control at 15.625 g/ha [12]: 0%; pest or weed control at 62.5 g/ha [12]: 0%; pest or weed control at 250 g/ha [12]: 70%
CN1C[C@H](c2cccc(C(F)(F)F)c2)[C@@H](C(=O)Nc2c(O)cccc2F)C1=O (racemic) [Compound 1808] | 0 | 0 | 10 | 0 | 20 | 70 | 0 | 0 | 10 | 0 | 0 | 20 | 0 | 0 | 0 | 0 | 0 | 40 | 0 | 0 | pest or weed control at 250 g/ha [7]: 0%; pest or weed control at 15.625 g/ha [8]: 0%; pest or weed control at 62.5 g/ha [8]: 30%; pest or weed control at 250 g/ha [8]: 60%; pest or weed control at 15.625 g/ha [9]: 0%; pest or weed control at 62.5 g/ha [9]: 0%; pest or weed control at 250 g/ha [9]: 0%; pest or weed control at 15.625 g/ha [10]: 0%; pest or weed control at 62.5 g/ha [10]: 0%; pest or weed control at 250 g/ha [10]: 0%; plant injury at 15.625 g/ha (corn (Zea mays) [11]): 0%; plant injury at 62.5 g/ha (corn (Zea mays) [11]): 0%; plant injury at 250 g/ha (corn (Zea mays) [11]): 0%; pest or weed control at 15.625 g/ha [12]: 0%; pest or weed control at 62.5 g/ha [12]: 20%; pest or weed control at 250 g/ha [12]: 60%

Source: US12077503B2, “Substituted cyclic amides and their use as herbicides” (FMC CORPORATION, priority 2015, dated 2024)
